Assay results taken from ChEMBL document CHEMBL1201862, “PubChem BioAssay data set” (2004).
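Five concentrations, 48 hours, 96-well plates. Abbreviation: GI50, concentration required for 50% inhibition of growth.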 Activity calls are given as the source filed them. Cut-off read from the data, not from the text of the source: active = GI50 up to about 1.1 µM and inactive = higher.

Experiments:
Experiment in all cases: DTP human tumour cell line panel, 48 h
[1] = system: SK-MEL-2
[2] = system: K562
[3] = system: HT-29
[4] = system: SK-MEL-28
[5] = system: NCI-H23
[6] = system: EKVX
[7] = system: UACC-257
[8] = system: UO-31
[9] = system: OVCAR-3
[10] = system: SF-295
[11] = system: IGROV-1
[12] = system: DU-145
[13] = system: T47D
[14] = system: HCT-116
[15] = system: HCC 2998
[16] = system: SR
[17] = system: NCI-H460
[18] = system: NCI-H522
[19] = system: SF-268

Measured: GI50

O=C(O)Cc1c[nH]c2ccc(F)cc12
inactive: [1] > 100 µM | [2] > 100 µM | [3] > 100 µM | [4] > 100 µM | [5] > 100 µM | [6] > 100 µM | [7] > 100 µM | [8] > 100 µM | [9] > 100 µM | [10] > 100 µM | [11] > 100 µM | [12] > 100 µM | [13] > 100 µM | [14] > 100 µM | [15] > 100 µM | [16] > 100 µM | [17] > 100 µM

C[C@]12CCC(=O)C=C1CC[C@@H]1[C@@H]2CC[C@]2(C)C(=O)/C(=C\c3ccccc3)C[C@@H]12
inactive: [1] 11.7 µM | [2] > 100 µM | [3] 19.6 µM | [4] > 46.8 µM | [5] 14.2 µM | [6] 19 µM | [7] 23.1 µM | [8] 25.7 µM | [9] 22.1 µM | [10] 29.9 µM | [11] 51.3 µM | [12] 33.5 µM | [13] 17.5 µM | [14] 11.4 µM | [15] 17.4 µM | [16] 4.53 µM | [17] 17.1 µM

CCN(CC)c1ccc2cc(C(N)=S)c(=N)oc2c1
inactive: [1] > 100 µM | [2] > 100 µM | [3] > 100 µM | [4] > 100 µM | [6] > 100 µM | [7] > 100 µM | [8] > 100 µM | [10] > 100 µM | [11] > 100 µM | [12] > 100 µM | [13] > 100 µM | [18] > 100 µM | [14] > 100 µM | [15] > 100 µM | [19] > 100 µM | [16] > 100 µM | [17] > 100 µM

COc1cc(OC)c2c(c1-c1ccc(C)cc1)CC(C)N(Cc1ccccc1)[C@H]2C (stereo partly specified)
inactive: [2] 22.1 µM | [3] 18.5 µM | [4] 38.2 µM | [5] 35 µM | [6] 43.9 µM | [7] 25.2 µM | [8] 47.9 µM | [10] 70.3 µM | [11] 80.4 µM | [12] 86.3 µM | [13] 23.8 µM | [18] 33.5 µM | [14] 20.3 µM | [15] 31.1 µM | [19] 31.3 µM | [16] 30.3 µM | [17] 37.7 µM

O=C(O)C1(Cc2ccc3c(c2)CCC3)Cc2ccccc2C1=O (stereo unspecified)
inactive: [1] 46 µM | [2] 50.5 µM | [3] > 100 µM | [4] > 100 µM | [5] 46.2 µM | [6] 63.2 µM | [7] > 100 µM | [8] 56 µM | [9] 54 µM | [10] 33.6 µM | [11] 57.8 µM | [12] 75.3 µM | [13] 40.9 µM | [14] 39 µM | [15] 43.5 µM | [19] 63.8 µM | [16] 59 µM | [17] 50.1 µM

CN(C)Cc1cc(/N=N/c2ccccc2Cl)ccc1O
inactive: [2] 16.7 µM | [3] 14.2 µM | [4] 16.9 µM | [5] 24.7 µM | [6] 49.3 µM | [7] 21.1 µM | [8] 12.9 µM | [9] 18 µM | [10] 16.6 µM | [11] 25.8 µM | [12] 23.5 µM | [13] 17.7 µM | [18] 10.6 µM | [14] 28.1 µM | [15] 13.5 µM | [19] 25.1 µM | [16] 26.5 µM | [17] 5.98 µM

Cc1cc(C2(c3cc(C)c(O)c(C(=O)O)c3)OS(=O)(=O)c3ccccc32)cc(C(=O)O)c1O
inactive: [1] > 100 µM | [2] > 100 µM | [3] > 100 µM | [4] > 100 µM | [6] > 100 µM | [7] > 100 µM | [8] > 100 µM | [9] > 100 µM | [10] > 100 µM | [11] > 100 µM | [12] > 100 µM | [13] > 100 µM | [18] > 100 µM | [14] > 100 µM | [19] > 100 µM | [16] > 100 µM | [17] > 100 µM

CC(=O)/C=N/CC(=O)O
inactive: [1] > 100 µM | [2] > 100 µM | [3] > 100 µM | [4] > 100 µM | [5] > 100 µM | [6] > 100 µM | [7] > 100 µM | [9] > 100 µM | [10] > 100 µM | [11] > 100 µM | [12] > 100 µM | [13] > 100 µM | [18] > 100 µM | [14] > 100 µM | [19] > 100 µM | [16] > 100 µM | [17] > 100 µM

O=C(O)c1ccccc1/C=N/N=C1c2ccccc2-c2ccccc21
inactive: [1] 44.1 µM | [2] 32.1 µM | [3] 29 µM | [4] 51.2 µM | [5] 38.5 µM | [6] 29 µM | [7] 85.1 µM | [8] 32.7 µM | [9] 15.6 µM | [10] 29.3 µM | [11] 43.3 µM | [12] 42.7 µM | [13] 30.7 µM | [18] 28.6 µM | [14] 31 µM | [19] 21.3 µM | [16] 27.3 µM | [17] 26.7 µM

COc1cc(C(=O)/C=C/c2ccc(OCCSCCCCCCCCCCSCCOc3ccc(/C=C/C(=O)c4cc(OC)c(OC)c(OC)c4)cc3)cc2)cc(OC)c1OC
inactive: [1] > 100 µM | [2] > 100 µM | [3] > 100 µM | [4] > 100 µM | [5] > 100 µM | [6] > 100 µM | [8] > 100 µM | [9] > 100 µM | [10] > 100 µM | [11] > 100 µM | [12] > 100 µM | [13] > 100 µM | [18] > 100 µM | [14] > 100 µM | [15] > 100 µM | [19] > 100 µM | [16] > 100 µM

COc1cc2c(cc1OC)C1c3ccccc3CCN1CCC2.[O-][Cl+3]([O-])([O-])O (stereo unspecified)
inactive: [2] 76 µM | [3] 69.7 µM | [4] > 100 µM | [6] > 100 µM | [7] > 100 µM | [8] 48.4 µM | [9] > 100 µM | [10] > 100 µM | [11] > 100 µM | [12] > 100 µM | [13] > 100 µM | [14] 74.3 µM | [15] > 100 µM | [19] > 100 µM | [16] > 100 µM

OCC(CN1CCCCC1)(CN1CCCCC1)CN1CCCCC1
inactive: [2] > 100 µM | [3] > 100 µM | [4] > 100 µM | [5] > 100 µM | [6] > 100 µM | [7] > 100 µM | [8] > 100 µM | [9] > 100 µM | [10] > 10 µM | [11] > 100 µM | [12] > 100 µM | [13] > 100 µM | [18] > 100 µM | [14] > 100 µM | [15] > 100 µM | [19] > 100 µM | [16] > 100 µM | [17] > 100 µM
